Results on 24 compounds are retold here after patent publication US20260116868A1 (Arcus Biosciences, Inc., priority 2023, published 2026).

The assay deals with T1, Cbl-b (Homo sapiens, UniProt Q13191).
T1 construct: biotin (biotinylated protein)
Put plainly: Cbl-b probe displacement HTRF binding assay. The conditions noted are these: 0.4 nM Cbl-b, 150 nM BODIPY probe. How it is done:
The affinity with which compounds of the present disclosure bind to Cbl-b was assessed using probe displacement homologous time resolved fluorescence (HTRF) assays. The assays used a BODIPY™ conjugated probe (Example 54 from WO 2020264398) and biotinylated Cbl-b. The assays were performed in assay buffer consisting of 20 mM Hepes, 150 mM NaCl, 0.01% Triton X-100, 0.5 mM TCEP, 0.01% BSA. On the day of the assay, a 20 point, 1:2 master serial dilution of each compound was prepared in DMSO to span a final concentration range of […] to 0 nM. Two hundred nanoliters of diluted compound was added to each well of a 384-well plate. Fifteen microliters of biotinylated- Cbl-b resuspended in assay buffer were added to each well and the plate incubated for 60 minutes at room temperature prior to addition of 5 μL of BODIPY™ probe in assay buffer. Final assay conditions included 0.4 nM of Cbl-b and 150 nM of BODIPY™ probe. After a further 15 minutes of incubation at room temperature, 5 μl of Streptavidin-Terbium cryptate reagent at 5-fold final concentration was added to each well of the 384-well plate. Binding of a probe to Cbl-b results in an increase of HTRF signal. HTRF signal was measured by Envision plate reader, while competition of a compound of the present disclosure with probe results in a decrease of signal. Percentage maximum activity in each test well was calculated based on DMSO (maximum activity, 0% displacement) and no protein control wells (baseline activity, 100% displacement). Binding affinity was determined from a dose response curve fitted using a standard four parameter fit equation. See Table 7 for data for compounds (Cbl-b Binding (IC50)).

Molecules are shown by their SMILES.

T1 sequence (Q13191 whole entry, species assumed): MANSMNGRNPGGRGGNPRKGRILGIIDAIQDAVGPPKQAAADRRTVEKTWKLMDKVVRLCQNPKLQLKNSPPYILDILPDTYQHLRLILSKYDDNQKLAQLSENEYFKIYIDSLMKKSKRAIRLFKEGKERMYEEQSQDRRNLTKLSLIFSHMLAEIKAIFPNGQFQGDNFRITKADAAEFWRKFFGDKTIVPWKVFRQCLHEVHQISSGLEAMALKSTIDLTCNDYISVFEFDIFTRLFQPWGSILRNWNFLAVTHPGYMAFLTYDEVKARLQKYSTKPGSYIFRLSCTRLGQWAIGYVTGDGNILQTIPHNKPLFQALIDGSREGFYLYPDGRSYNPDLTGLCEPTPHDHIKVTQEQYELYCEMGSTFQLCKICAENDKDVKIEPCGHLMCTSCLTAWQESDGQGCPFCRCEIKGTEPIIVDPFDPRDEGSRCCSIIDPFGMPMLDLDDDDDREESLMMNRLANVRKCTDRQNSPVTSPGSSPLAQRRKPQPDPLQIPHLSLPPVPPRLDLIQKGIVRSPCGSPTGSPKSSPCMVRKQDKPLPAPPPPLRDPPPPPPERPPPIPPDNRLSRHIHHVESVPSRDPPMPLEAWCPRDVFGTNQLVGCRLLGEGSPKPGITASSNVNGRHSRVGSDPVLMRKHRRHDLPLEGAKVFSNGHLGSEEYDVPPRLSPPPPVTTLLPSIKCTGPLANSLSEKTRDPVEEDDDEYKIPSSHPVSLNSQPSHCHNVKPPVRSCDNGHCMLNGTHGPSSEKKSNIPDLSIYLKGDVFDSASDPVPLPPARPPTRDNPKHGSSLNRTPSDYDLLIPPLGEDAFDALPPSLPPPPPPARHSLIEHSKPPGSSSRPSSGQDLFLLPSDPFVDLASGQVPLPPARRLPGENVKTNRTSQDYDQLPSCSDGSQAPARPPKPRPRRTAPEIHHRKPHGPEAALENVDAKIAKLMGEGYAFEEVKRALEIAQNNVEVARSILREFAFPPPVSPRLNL

As for `CC(C)Oc1cc(-c2ccc(C#N)cc2C(=O)N2CC(F)(F)C2)cc(NC(=O)c2cc(CN[C@@H](C)C3CCC3)cn(C3CC3)c2=O)n1` [Example 143, N-(4-{4-cyano-2-[(3,3-difluoro-1-azetidinyl)carbonyl]phenyl}-6-isopropoxy-2-pyridyl)-5-{[(S)-1-cyclobutylethylamino]methyl}-1-cyclopropyl-2-oxo-1,2-dihydronicotinamide], the IC50 is under 100 nM. `O=C(Nc1cc(-c2c(F)cc(Cl)cc2C(=O)N2CC(F)(F)C2)cc(C2CC2)n1)c1cc(CNC[C@@H]2CCCO2)cn(C2CC2)c1=O` [Example 145, N-(4-{4-chloro-2-[(3,3-difluoro-1-azetidinyl)carbonyl]-6-fluorophenyl}-6-cyclopropyl-2-pyridyl)-1-cyclopropyl-2-oxo-5-[({[(S)-perhydro-2-furyl]methyl}amino)methyl]-1,2-dihydronicotinamide]: the 50% inhibitory concentration (IC50) was under 100 nM. The same measure for `O=C(Nc1cc(-c2c(F)cc(Cl)cc2C(=O)N2CC(F)(F)C2)cc(C2CC2)n1)c1cc(CNC[C@@H]2CCCCO2)cn(C2CC2)c1=O` [Example 146, N-(4-{4-chloro-2-[(3,3-difluoro-1-azetidinyl)carbonyl]-6-fluorophenyl}-6-cyclopropyl-2-pyridyl)-1-cyclopropyl-2-oxo-5-[({[(S)-tetrahydro-2H-pyran-2-yl]methyl}amino)methyl]-1,2-dihydronicotinamide]: under 100 nM; for `COCCNCc1cc(C(=O)Nc2cc(-c3c(F)cc(Cl)cc3C(=O)N3CC(F)(F)C3)cc(C3CC3)n2)c(=O)n(C2CC2)c1` [Example 147, N-(4-{4-chloro-2-[(3,3-difluoro-1-azetidinyl)carbonyl]-6-fluorophenyl}-6-cyclopropyl-2-pyridyl)-1-cyclopropyl-5-[(2-methoxyethylamino)methyl]-2-oxo-1,2-dihydronicotinamide]: under 100 nM; for `O=C(Nc1cc(-c2c(F)cc(Cl)cc2C(=O)N2CC(F)(F)C2)cc(C2CC2)n1)c1cc(CNCC2CC2)cn(C2CC2)c1=O` [Example 148, N-(4-{4-chloro-2-[(3,3-difluoro-1-azetidinyl)carbonyl]-6-fluorophenyl}-6-cyclopropyl-2-pyridyl)-1-cyclopropyl-5-{[(cyclopropylmethyl)amino]methyl}-2-oxo-1,2-dihydronicotinamide]: under 100 nM. Consider `CO[C@@H](C)CNCc1cc(C(=O)Nc2cc(-c3ccc(OC(F)F)cc3C(=O)N3CC(F)(F)C3)cc(Cl)n2)c(=O)n(C2CC2)c1` [Example 149, N-(6-chloro-4-{2-[(3,3-difluoro-1-azetidinyl)carbonyl]-4-difluoromethoxyphenyl}-2-pyridyl)-1-cyclopropyl-5-{[(S)-2-methoxypropylamino]methyl}-2-oxo-1,2-dihydronicotinamide], for which the IC50 was under 100 nM.

In the case of `COc1ccc(-c2cc(NC(=O)c3cc(CNC[C@H](C)OC)cn(C4CC4)c3=O)nc(C3CC3)c2)c(C(=O)N2CC(F)(F)C2)c1` [Example 150, N-(6-Cyclopropyl-4-{2-[(3,3-difluoro-1-azetidinyl)carbonyl]-4-methoxyphenyl}-2-pyridyl)-1-cyclopropyl-5-{[(S)-2-methoxypropylamino]methyl}-2-oxo-1,2-dihydronicotinamide], the IC50 was under 100 nM. Compound `COc1ccc(-c2cc(NC(=O)c3cc(CNCC(C)C)cn(C4CC4)c3=O)nc(C3CC3)c2)c(C(=O)N2CC(F)(F)C2)c1` [Example 151, N-(6-Cyclopropyl-4-{2-[(3,3-difluoro-1-azetidinyl)carbonyl]-4-methoxyphenyl}-2-pyridyl)-1-cyclopropyl-5-[(isobutylamino)methyl]-2-oxo-1,2-dihydronicotinamide] had an IC50 of under 100 nM. As to `COc1ccc(-c2cc(NC(=O)c3cc(CN[C@@H](C)[C@H](C)OC)cn(C4CC4)c3=O)nc(C3CC3)c2)c(C(=O)N2CC(F)(F)C2)c1` [Example 152, N-(6-Cyclopropyl-4-{2-[(3,3-difluoro-1-azetidinyl)carbonyl]-4-methoxyphenyl}-2-pyridyl)-1-cyclopropyl-5-{[(1S,2S)-2-methoxy-1-methylpropylamino]methyl}-2-oxo-1,2-dihydronicotinamide], the IC50 is under 100 nM. `COc1ccc(-c2cc(NC(=O)c3cc(CNC[C@@H]4CCCO4)cn(C4CC4)c3=O)nc(C3CC3)c2)c(C(=O)N2CC(F)(F)C2)c1` [Example 153, N-(6-Cyclopropyl-4-{2-[(3,3-difluoro-1-azetidinyl)carbonyl]-4-methoxyphenyl}-2-pyridyl)-1-cyclopropyl-2-oxo-5-[({[(S)-perhydro-2-furyl]methyl}amino)methyl]-1,2-dihydronicotinamide] yielded a half-inhibitory concentration (IC50) of under 100 nM. Consider `CO[C@@H](C)CNCc1cc(C(=O)Nc2cc(-c3ccc(Cl)cc3C(=O)N3CC(C#N)C3)cc(C3CC3)n2)c(=O)n(C2CC2)c1` [Example 155, N-(4-{4-Chloro-2-[(3-cyano-1-azetidinyl)carbonyl]phenyl}-6-cyclopropyl-2-pyridyl)-1-cyclopropyl-5-{[(S)-2-methoxypropylamino]methyl}-2-oxo-1,2-dihydronicotinamide], for which the concentration for half-maximal inhibition (IC50) was under 100 nM. `CO[C@@H](C)CNCc1cc(C(=O)Nc2cc(-c3ccc(Cl)cc3C(=O)N3CCC3)cc(C3CC3)n2)c(=O)n(C2CC2)c1` [Example 156, N-(4-{2-[(1-Azetidinyl)carbonyl]-4-chlorophenyl}-6-cyclopropyl-2-pyridyl)-1-cyclopropyl-5-{[(S)-2-methoxypropylamino]methyl}-2-oxo-1,2-dihydronicotinamide]: the half-maximal inhibitory concentration (IC50) was under 100 nM. `CO[C@@H](C)CNCc1cc(C(=O)Nc2cc(-c3ccc(Cl)cc3C(=O)N3CC(C(F)(F)F)C3)cc(C3CC3)n2)c(=O)n(C2CC2)c1` [Example 157, N-[4-(4-Chloro-2-{[3-(trifluoromethyl)-1-azetidinyl]carbonyl}phenyl)-6-cyclopropyl-2-pyridyl]-1-cyclopropyl-5-{[(S)-2-methoxypropylamino]methyl}-2-oxo-1,2-dihydronicotinamide] registered a concentration for half-maximal inhibition (IC50) of under 100 nM. Turning to `CO[C@@H](C)CNCc1cc(C(=O)Nc2cc(-c3ccc(Cl)cc3C(=O)N3CC(C)(F)C3)cc(C3CC3)n2)c(=O)n(C2CC2)c1` [Example 158, N-(4-{4-Chloro-2-[(3-fluoro-3-methyl-1-azetidinyl)carbonyl]phenyl}-6-cyclopropyl-2-pyridyl)-1-cyclopropyl-5-{[(S)-2-methoxypropylamino]methyl}-2-oxo-1,2-dihydronicotinamide], the IC50 was under 100 nM. For `CO[C@@H](C)CNCc1cc(C(=O)Nc2cc(-c3ccc(Cl)cc3C(=O)N3CC(C)C3)cc(C3CC3)n2)c(=O)n(C2CC2)c1` [Example 159, N-(4-{4-Chloro-2-[(3-methyl-1-azetidinyl)carbonyl]phenyl}-6-cyclopropyl-2-pyridyl)-1-cyclopropyl-5-{[(S)-2-methoxypropylamino]methyl}-2-oxo-1,2-dihydronicotinamide], the IC50 is under 100 nM. For the compound `CO[C@@H](C)CNCc1cc(C(=O)Nc2cc(-c3ccc(Cl)cc3C(=O)N3CC4(COC4)C3)cc(C3CC3)n2)c(=O)n(C2CC2)c1` [Example 160, N-(4-{4-Chloro-2-[(2-oxa-6-aza-6-spiro[3.3]heptyl)carbonyl]phenyl}-6-cyclopropyl-2-pyridyl)-1-cyclopropyl-5-{[(S)-2-methoxypropylamino]methyl}-2-oxo-1,2-dihydronicotinamide], the 50% inhibitory concentration (IC50) was under 100 nM. `CO[C@@H](C)CNCc1cc(C(=O)Nc2cc(-c3ccc(Cl)cc3C(=O)N(C)C)cc(C3CC3)n2)c(=O)n(C2CC2)c1` [Example 161, N-{4-[4-Chloro-2-(N,N-dimethylcarbamoyl)phenyl]-6-cyclopropyl-2-pyridyl}-1-cyclopropyl-5-{[(S)-2-methoxypropylamino]methyl}-2-oxo-1,2-dihydronicotinamide] registered an IC50 of under 100 nM. On to `CO[C@@H](C)CNCc1cc(C(=O)Nc2cc(-c3ccc(Cl)cc3C(=O)N3CC(F)(F)C3)cc(OCC(F)F)n2)c(=O)n(C2CC2)c1` [Example 162], for which the IC50 is under 100 nM. On to `CO[C@@H](C)CNCc1cc(C(=O)Nc2cc(-c3ccc(Cl)cc3C(=O)N3CC(F)(F)C3)cc(OCC(F)(F)F)n2)c(=O)n(C2CC2)c1` [Example 163], for which the half-inhibitory concentration (IC50) is under 100 nM. `O=C(Nc1cc(-c2ccc(OC(F)F)cc2C(=O)N2CC(F)(F)C2)cc(OCC(F)F)n1)c1cc(CNC[C@@H]2CCCO2)cn(C2CC2)c1=O` [Example 164] came in with an IC50 of under 100 nM.

On to `O=C(Nc1cc(-c2ccc(OC(F)F)cc2C(=O)N2CC(F)(F)C2)cc(OCC(F)F)n1)c1cc(CNC[C@@H]2COCCO2)cn(C2CC2)c1=O` [Example 165], for which the IC50 is under 100 nM.

Turning to `Cc1ccc(-c2cc(NC(=O)c3cc(CNC[C@@H]4CCCO4)cn(C4CC4)c3=O)nc(OCC(F)F)c2)c(C(=O)N2CC(F)(F)C2)c1` [Example 166], the IC50 is under 100 nM.

`C[C@H](NCc1cc(C(=O)Nc2cc(-c3ccc(C#N)cc3C(=O)N3CC(F)(F)C3)cc(C3CC3)n2)c(=O)n(C)c1)C1CCC1` [Example 167]: the IC50 is under 100 nM.

Compound `CCn1cc(CNCC(C)C)cc(C(=O)Nc2cc(-c3ccc(C#N)cc3C(=O)N3CC(F)(F)C3)cc(C3CC3)n2)c1=O` [Example 168] returned an IC50 of under 100 nM.

Usually IC50 stands for the concentration that inhibits the measured activity by half.
